From patent publication US10639285B2 (Aurea Biolabs Private Limited, priority 2014, dated 2020)

Experiment: Absorption of curcumin and white curcumin in the blood plasma (FIG. 3)
Type: in vivo

SMILES: COc1cc(C=CC(=O)CC(=O)C=Cc2ccc(O)c(OC)c2)ccc1O [curcumin, 1,7 bis (4-hydroxy-3-methoxy phenyl)-1,6 heptadiene-3,5-dione]
- time of absorption in the blood plasma: 2 h
